What was measured:
[1] = tested on: DU145 prostate carcinoma human cell lines; test: DU145 prostate carcinoma human cell lines grown i.d. in nude mice; assay type: in vivo
Method: DU145 Prostate Carcinoma Human Cell Lines Grown i.d. in Nude Mice
DU145 prostate carcinoma human cell lines are grown i.d. in nude mice. Tumor cell (10^6) are injected intradermally (i.d.) on the left and right flank of nude mice. Treatment with compounds is started after 25-32 days when tumors reach a size of 80-100 mm^2. At this time animals are sorted into groups with equivalent mean and range of tumor sizes. Treatment is then randomized to the different groups. Tumor size is measured with calipers on a weekly basis.
After 4 weeks of treatment, 50 mg/kg po/day of PTK787 (active ingredient 1) reduces the tumor growth by 74%. 50 mg/kg po/day of the selective EGF receptor tyrosine kinase inhibitor as described in Example 1 of WO 96/33980 (active ingredient 2) reduces tumor growth by 91%. The maximum effects of either agent given alone in this model is stable disease. Simultaneous treatment with both active ingredients (50 mg/kg po/day of each active ingredient) results in tumor regression (25% reduction compared to intial tumor weight).
After 2 weeks of treatment, 50 mg/kg po/day of PTK787 (active ingredient 1) reduces the tumor growth by 41%. 50 mg/kg po/day of the selective EGF receptor tyrosine kinase inhibitor PKI166 reduces tumor growth by 44%. Simultaneous treatment with both active ingredients (50 mg/kg po/day of each active ingredient) reduces the tumor growth by 74%.

[2] = tested on: NeuT transfected HC11 mouse mammary epithelial cells (breast tumors); test: Mouse breast carcinoma induced by transfection of breast epithelial cells with NeuT (transgenic organ tumor model); assay type: in vivo; conditions: female BALB/c mice, 100 mg/kg of each active ingredient once per day; fraction of tumors
Method: Treatment of Mouse Breast Carcinoma Induced by Transfection of Breast Epithelial Cells with NeuT (Transgenic Organ Tumor Model)
The dual treatment with PTK787 in the form of its succinate salt (active ingredient 1, Example 62 of WO 98/35958) and an EGF receptor tyrosine inhibitor of formula IV wherein q′ is 1, n′ is 0, R^E1 is hydrogen, R^E2 is 3-acetylamino phenyl and R^E6 is methyl (active ingredient 2, Example 22e of WO 97/02266) is performed on a genetically engineered tumor model, which uses “transgenic” organs in normal mice. NeuT (the point mutated rat homolog of erbB-2) transfected HC11 epithelial mouse mammary epithelial cells are transplanted into the gland-free mammary fat pad (cleared fat-pad) of the fourth mammary gland of female BALB/c mice according to an established method (DeOme, Faulkin, et al., Cancer Res. 19: 515-520, 1959). Within 4 to 6 weeks, the transplanted oncogene-transfected mammary epithelial cells develop breast tumors. Tumors are focal and heterogeneous in morphology, and oncogene and other molecular marker expression. Tumors grow rapidly and most of the animals develop breast tumors bilaterally after transplantation. The animals are allocated randomly to three different treatment groups. A first group is treated with 100 mg/kg of active ingredient 1 dosed once per day alone; a second group is treated with 100 mg/kg of active ingredient 2 dosed once per day alone; and a third group is treated with the combination of both active ingredients dosed with 100 mg/kg once per day. […]

[3] = 50 mg/kg po/day of each active ingredient, after 2 weeks of treatment
[4] = 50 mg/kg po/day, after 4 weeks of treatment

Row | Compound | reduction of tumor growth [1, 3] [%] | reduction of tumor growth [1, 4] [%] | tumors with regression [2] [%] | tumors with stable disease [2] [%] | tumors without response to the treatment [2] [%]
1 | C[C@@H](Nc1ncnc2[nH]c(-c3ccc(O)cc3)cc12)c1ccccc1 [PKI166] | 44 | – | – | – | –
2 | COc1cc2ncnc(Nc3ccc(F)c(Cl)c3)c2cc1OCCCN1CCOCC1 [Example 1 of WO 96/33980, reference compound] | – | 91 | – | – | –
3 | Clc1ccc(Nc2nnc(Cc3ccncc3)c3ccccc23)cc1 [PTK787] | 41 | 74 | 7 | 21 | 78
